# Measurements from patent US9840520B2, “Heterocyclic hydroxamic acids as protein deacetylase inhibitors and dual protein deacetylase-protein kinase inhibitors and methods of use thereof” (The Regents of the University of Colorado, A Body Corporate, priority 2014, dated 2017).
# pIC50: −log10 of the molar value.
# How the values were obtained:
# HDAC-1 = HDAC-1 (Homo sapiens, UniProt Q13547); assay: HDAC Fluorescent Activity Assay (Fluor de Lys), HDAC-1
# HDAC-8 = HDAC-8 (Homo sapiens, UniProt Q9BY41); assay: HDAC Fluorescent Activity Assay (Fluor de Lys), HDAC-8
# HDAC-5 = HDAC-5 (Homo sapiens, UniProt Q9UQL6); assay: HDAC Fluorescent Activity Assay (Fluor de Lys), HDAC-5
# HDAC-4 = HDAC-4 (Homo sapiens, UniProt P56524); assay: HDAC Fluorescent Activity Assay (Fluor de Lys), HDAC-4
# HDAC-3 = HDAC-3 (Homo sapiens, UniProt O15379); assay: HDAC Fluorescent Activity Assay (Fluor de Lys), HDAC-3
# HDAC-9 = HDAC-9 (Homo sapiens, UniProt Q9UKV0); assay: HDAC Fluorescent Activity Assay (Fluor de Lys), HDAC-9
# HDAC-7 = HDAC-7 (Homo sapiens, UniProt Q8WUI4); assay: HDAC Fluorescent Activity Assay (Fluor de Lys), HDAC-7
# HDAC-11 = HDAC-11 (Homo sapiens, UniProt Q96DB2); assay: HDAC Fluorescent Activity Assay (Fluor de Lys), HDAC-11
# HDAC-2 = HDAC-2 (Homo sapiens, UniProt Q92769); assay: HDAC Fluorescent Activity Assay (Fluor de Lys), HDAC-2
# HDAC-6 = HDAC-6 (Homo sapiens, UniProt Q9UBN7); assay: HDAC Fluorescent Activity Assay (Fluor de Lys), HDAC-6
# HDAC-10 = HDAC-10 (Homo sapiens, UniProt Q969S8); assay: HDAC Fluorescent Activity Assay (Fluor de Lys), HDAC-10
# ovarian xenograft = details: cited from earlier work
# HDAC-6, sequence (Q9UBN7 whole entry): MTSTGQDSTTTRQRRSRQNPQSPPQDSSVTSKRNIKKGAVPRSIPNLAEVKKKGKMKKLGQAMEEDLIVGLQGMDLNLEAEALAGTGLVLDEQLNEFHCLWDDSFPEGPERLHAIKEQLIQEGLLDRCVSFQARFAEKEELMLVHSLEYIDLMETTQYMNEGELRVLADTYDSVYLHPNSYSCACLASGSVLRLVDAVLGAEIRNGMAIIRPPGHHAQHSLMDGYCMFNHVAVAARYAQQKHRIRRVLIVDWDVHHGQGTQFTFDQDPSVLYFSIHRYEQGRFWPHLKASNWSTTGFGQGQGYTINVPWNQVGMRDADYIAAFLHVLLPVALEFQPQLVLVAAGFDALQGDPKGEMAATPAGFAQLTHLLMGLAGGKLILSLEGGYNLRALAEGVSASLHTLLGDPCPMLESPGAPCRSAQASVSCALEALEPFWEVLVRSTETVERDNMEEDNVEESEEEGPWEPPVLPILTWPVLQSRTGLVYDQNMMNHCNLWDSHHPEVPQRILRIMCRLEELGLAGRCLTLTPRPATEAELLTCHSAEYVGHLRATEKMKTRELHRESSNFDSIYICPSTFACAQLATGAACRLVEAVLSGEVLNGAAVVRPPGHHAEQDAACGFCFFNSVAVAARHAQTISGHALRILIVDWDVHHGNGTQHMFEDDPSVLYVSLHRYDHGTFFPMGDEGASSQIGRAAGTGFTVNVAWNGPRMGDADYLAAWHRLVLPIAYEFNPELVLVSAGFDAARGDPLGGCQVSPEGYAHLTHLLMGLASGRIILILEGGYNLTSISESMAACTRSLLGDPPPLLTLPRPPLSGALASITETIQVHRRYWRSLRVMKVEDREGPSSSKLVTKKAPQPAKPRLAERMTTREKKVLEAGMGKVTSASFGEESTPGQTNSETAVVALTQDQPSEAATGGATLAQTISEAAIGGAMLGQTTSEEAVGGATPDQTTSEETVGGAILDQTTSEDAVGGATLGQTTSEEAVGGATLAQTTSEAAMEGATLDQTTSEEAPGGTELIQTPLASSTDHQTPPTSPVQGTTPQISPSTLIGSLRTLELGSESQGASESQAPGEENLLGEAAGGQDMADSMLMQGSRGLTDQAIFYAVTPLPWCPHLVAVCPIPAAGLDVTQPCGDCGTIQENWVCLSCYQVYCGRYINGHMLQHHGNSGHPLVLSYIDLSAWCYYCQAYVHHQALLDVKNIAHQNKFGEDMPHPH
# HDAC-7, sequence (Q8WUI4 whole entry): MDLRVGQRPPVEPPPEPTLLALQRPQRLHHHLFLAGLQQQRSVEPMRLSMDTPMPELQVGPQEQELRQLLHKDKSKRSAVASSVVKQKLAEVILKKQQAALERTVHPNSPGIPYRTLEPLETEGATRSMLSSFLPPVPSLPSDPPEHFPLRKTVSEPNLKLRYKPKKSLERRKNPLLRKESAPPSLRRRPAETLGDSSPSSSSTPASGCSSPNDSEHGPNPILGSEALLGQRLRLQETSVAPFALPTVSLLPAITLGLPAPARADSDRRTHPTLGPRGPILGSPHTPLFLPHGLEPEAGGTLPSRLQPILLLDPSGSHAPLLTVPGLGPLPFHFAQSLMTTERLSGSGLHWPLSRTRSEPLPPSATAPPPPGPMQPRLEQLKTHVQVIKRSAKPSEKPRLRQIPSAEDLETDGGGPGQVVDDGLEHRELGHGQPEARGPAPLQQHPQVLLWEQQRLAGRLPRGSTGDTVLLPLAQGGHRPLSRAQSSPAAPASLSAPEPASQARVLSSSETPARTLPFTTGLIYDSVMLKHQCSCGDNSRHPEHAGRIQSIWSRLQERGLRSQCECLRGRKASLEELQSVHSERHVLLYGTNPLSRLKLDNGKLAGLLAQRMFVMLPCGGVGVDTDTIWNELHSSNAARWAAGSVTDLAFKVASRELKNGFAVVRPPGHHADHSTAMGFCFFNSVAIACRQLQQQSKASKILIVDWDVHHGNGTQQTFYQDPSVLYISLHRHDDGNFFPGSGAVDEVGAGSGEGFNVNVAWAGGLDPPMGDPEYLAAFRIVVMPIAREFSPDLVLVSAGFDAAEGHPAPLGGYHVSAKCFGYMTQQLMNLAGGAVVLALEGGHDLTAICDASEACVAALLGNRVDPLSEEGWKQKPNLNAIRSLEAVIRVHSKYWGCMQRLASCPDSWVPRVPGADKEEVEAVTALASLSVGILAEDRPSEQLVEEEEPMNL
# HDAC-10, sequence (Q969S8 whole entry): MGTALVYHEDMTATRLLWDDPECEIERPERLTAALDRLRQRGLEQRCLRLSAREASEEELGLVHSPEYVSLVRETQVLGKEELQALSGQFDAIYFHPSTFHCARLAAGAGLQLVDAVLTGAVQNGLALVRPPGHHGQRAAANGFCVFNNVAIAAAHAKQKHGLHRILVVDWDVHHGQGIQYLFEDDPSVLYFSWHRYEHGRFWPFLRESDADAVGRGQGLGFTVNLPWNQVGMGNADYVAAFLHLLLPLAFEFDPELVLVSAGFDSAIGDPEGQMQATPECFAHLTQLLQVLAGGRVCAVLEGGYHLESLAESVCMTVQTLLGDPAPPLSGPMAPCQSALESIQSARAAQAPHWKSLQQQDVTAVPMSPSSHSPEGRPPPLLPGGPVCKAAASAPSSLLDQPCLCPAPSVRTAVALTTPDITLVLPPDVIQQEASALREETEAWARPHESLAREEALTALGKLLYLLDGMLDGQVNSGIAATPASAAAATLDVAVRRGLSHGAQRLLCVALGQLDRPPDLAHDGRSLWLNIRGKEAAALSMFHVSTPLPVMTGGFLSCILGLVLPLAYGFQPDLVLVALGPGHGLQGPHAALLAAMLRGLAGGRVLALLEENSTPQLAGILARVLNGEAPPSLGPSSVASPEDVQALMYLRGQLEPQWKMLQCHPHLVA
# HDAC-11, sequence (Q96DB2 whole entry): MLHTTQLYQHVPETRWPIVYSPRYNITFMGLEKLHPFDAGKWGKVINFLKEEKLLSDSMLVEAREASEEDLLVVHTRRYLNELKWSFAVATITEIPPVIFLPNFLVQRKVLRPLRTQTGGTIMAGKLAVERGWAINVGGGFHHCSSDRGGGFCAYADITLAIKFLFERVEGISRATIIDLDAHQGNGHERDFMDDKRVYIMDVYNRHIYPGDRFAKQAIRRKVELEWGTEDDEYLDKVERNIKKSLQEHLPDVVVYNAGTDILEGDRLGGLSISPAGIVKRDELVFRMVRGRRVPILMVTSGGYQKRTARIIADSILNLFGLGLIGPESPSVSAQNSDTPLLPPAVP
# HDAC-8, sequence (Q9BY41 whole entry): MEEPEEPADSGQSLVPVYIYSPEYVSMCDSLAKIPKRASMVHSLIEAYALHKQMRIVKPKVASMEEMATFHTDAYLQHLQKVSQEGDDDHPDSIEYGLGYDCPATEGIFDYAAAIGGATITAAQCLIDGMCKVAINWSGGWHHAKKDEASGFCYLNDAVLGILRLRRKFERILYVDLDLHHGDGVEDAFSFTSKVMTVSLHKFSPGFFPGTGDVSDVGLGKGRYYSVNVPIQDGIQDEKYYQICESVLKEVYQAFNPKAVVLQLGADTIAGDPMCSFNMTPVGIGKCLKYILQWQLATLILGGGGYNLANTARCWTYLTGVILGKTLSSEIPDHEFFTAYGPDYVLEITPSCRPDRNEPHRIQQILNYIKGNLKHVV
# HDAC-5, sequence (Q9UQL6 whole entry): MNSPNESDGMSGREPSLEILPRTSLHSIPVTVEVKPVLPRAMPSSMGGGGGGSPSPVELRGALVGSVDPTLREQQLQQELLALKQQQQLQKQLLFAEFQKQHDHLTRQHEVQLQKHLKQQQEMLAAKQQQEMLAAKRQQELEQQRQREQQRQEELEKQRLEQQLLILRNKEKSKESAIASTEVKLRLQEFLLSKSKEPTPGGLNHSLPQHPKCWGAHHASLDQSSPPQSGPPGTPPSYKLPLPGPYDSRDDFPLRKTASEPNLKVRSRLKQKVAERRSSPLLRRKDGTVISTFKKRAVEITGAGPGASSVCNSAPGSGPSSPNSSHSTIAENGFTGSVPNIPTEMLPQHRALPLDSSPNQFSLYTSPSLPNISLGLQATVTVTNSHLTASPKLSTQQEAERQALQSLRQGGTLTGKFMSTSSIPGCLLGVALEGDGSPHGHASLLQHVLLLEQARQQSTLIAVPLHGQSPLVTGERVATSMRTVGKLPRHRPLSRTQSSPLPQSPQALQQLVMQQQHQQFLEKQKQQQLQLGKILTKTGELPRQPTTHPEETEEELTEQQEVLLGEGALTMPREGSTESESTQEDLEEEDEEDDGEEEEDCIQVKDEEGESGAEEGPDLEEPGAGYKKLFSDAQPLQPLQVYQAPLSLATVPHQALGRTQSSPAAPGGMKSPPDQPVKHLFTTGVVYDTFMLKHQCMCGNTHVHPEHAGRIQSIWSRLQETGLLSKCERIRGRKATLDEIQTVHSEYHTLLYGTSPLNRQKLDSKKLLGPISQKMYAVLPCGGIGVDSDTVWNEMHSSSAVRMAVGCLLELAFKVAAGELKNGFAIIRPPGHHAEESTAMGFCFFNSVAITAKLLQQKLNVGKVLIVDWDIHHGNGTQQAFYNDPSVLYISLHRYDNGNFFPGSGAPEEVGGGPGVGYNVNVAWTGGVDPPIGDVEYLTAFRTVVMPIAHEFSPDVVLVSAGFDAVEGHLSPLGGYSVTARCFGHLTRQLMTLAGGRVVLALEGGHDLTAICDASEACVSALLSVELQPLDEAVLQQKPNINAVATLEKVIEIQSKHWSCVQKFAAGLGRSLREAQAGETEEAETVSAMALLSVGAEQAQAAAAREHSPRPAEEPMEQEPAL
SMILES,pIC50 (HDAC-1),pIC50 (HDAC-8),pIC50 (HDAC-5),pIC50 (HDAC-4),pIC50 (HDAC-3),pIC50 (HDAC-9),pIC50 (HDAC-7),pIC50 (HDAC-11),pIC50 (HDAC-2),pIC50 (HDAC-6),pIC50 (HDAC-10),efficacy in an ovarian xenograft (ovarian xenograft)
"Cn1cnc2c(NC3CCCCC3)nc(Nc3ccc(OCCCCCCC(=O)NO)cc3)nc21 [Example 8, 7-(4-(6-(Cyclohexylamino)-9-methyl-9H-purin-2-ylamino)phenoxy)-N-hydroxyheptanamide]",7.64,6.57,< 4.00,< 4.00,6.85,< 4.00,< 4.00,7.92,6.91,8.17,7.72,–
"Cn1cnc2c(NC3CCCCC3)nc(Nc3ccc(OCCCCCC(=O)NO)cc3)nc21 [Example 9, 6-(4-(6-(cyclohexylamino)-9-methyl-9H-purin-2-ylamino)phenoxy)-N-hydroxyhexanamide]",6.37,6.65,< 4.00,< 4.00,5.93,< 4.00,< 4.00,6.80,5.79,8.01,6.55,–
CCc1cccc(CC)c1NC(=O)c1nn(C)c2c1CCc1cnc(Nc3ccc(C(=O)NC4CCN(C)CC4)cc3OC(F)(F)F)nc1-2 [NMS-P715],–,–,–,–,–,–,–,–,–,–,–,promising efficacies
